According to ChEMBL document CHEMBL5647694, “Novel orally bioavailable EZH1/2 dual inhibitors with greater antitumor efficacy than an EZH2 selective inhibitor” (Cancer Sci, 2017):

Assays:
MOLT-4 = assay: Antitumor activity against human MOLT-4 cells assessed as cell growth inhibition treated for 10 to 15 days; type: functional; details: time 10-15 day
Daudi = assay: Antitumor activity against human Daudi cells assessed as cell growth inhibition treated for 10 to 15 days; type: functional; details: time 10-15 day
[1] = target: Histone-arginine methyltransferase CARM1 (Homo sapiens, UniProt Q86X55); assay: Inhibition of human PRMT4 using Histone H3 and [3H]SAM as substrate incubated for 30 mins to 1 hr by HotSpot kinase assay
NCI-H661 = assay: Antitumor activity against human NCI-H661 cells assessed as cell growth inhibition treated for 10 to 15 days; type: functional; details: time 10-15 day
HCC1569 = assay: Antitumor activity against human HCC1569 cells assessed as cell growth inhibition treated for 10 to 15 days; type: functional; details: time 10-15 day
Raji = assay: Antitumor activity against human Raji cells assessed as cell growth inhibition treated for 10 to 15 days; type: functional; details: time 10-15 day
BT-549 = assay: Antitumor activity against human BT-549 cells assessed as cell growth inhibition treated for 10 to 15 days; type: functional; details: time 10-15 day
PRMT5/MEP50 complex = PRMT5/MEP50 complex (Homo sapiens, UniProt O14744+Q9BQA1); assay: Inhibition of human PRMT5/MEP50 using Histone H2A and [3H]SAM as substrate incubated for 30 mins to 1 hr by HotSpot kinase assay; type: protein-complex assay
HuT78 = assay: Antitumor activity against human HuT78 cells assessed as cell growth inhibition treated for 10 to 15 days; type: functional; details: time 10-15 day
HH = assay: Antitumor activity against human HH cells assessed as cell growth inhibition treated for 10 to 15 days; type: functional; details: time 10-15 day
SUP-T1 = assay: Antitumor activity against human SUP-T1 cells assessed as cell growth inhibition treated for 10 to 15 days; type: functional; details: time 10-15 day
[2] = Antitumor activity against human HCC202 cells assessed as cell growth inhibition treated for 10 to 15 days; type: functional; details: time 10-15 day
MV4-11 = assay: Antitumor activity against human MV4-11 cells assessed as cell growth inhibition treated for 10 to 15 days; type: functional; details: time 10-15 day
[3] = Antitumor activity against human NCI-H1781 cells assessed as cell growth inhibition treated for 10 to 15 days; type: functional; details: time 10-15 day
MDA-MB-231 = assay: Antitumor activity against human MDA-MB-231 cells assessed as cell growth inhibition treated for 10 to 15 days; type: functional; details: time 10-15 day
NCI-H2081 = assay: Antitumor activity against human NCI-H2081 cells assessed as cell growth inhibition treated for 10 to 15 days; type: functional; details: time 10-15 day
PC-3 = assay: Antitumor activity against human PC-3 cells assessed as cell growth inhibition treated for 10 to 15 days; type: functional; details: time 10-15 day
OVCAR-3 = assay: Antitumor activity against human OVCAR-3 cells assessed as cell growth inhibition treated for 10 to 15 days; type: functional; details: time 10-15 day
CCRF-CEM = assay: Antitumor activity against human CCRF-CEM cells assessed as cell growth inhibition treated for 10 to 15 days; type: functional; details: time 10-15 day
HCC1806 = assay: Antitumor activity against human HCC1806 cells assessed as cell growth inhibition treated for 10 to 15 days; type: functional; details: time 10-15 day
LoVo = assay: Antitumor activity against human LoVo cells assessed as cell growth inhibition treated for 10 to 15 days; type: functional; details: time 10-15 day
[4] = target: Eukaryotic translation initiation factor 2-alpha kinase 3 (Homo sapiens) (UniProt Q9NZJ5); assay: Inhibition of N-terminal GST-fused human PEK catalytic domain (536 to 1116 residues) expressed in Escherichia coli expression system using SRPKtide as substrate at 1 uM in presence of ATP by Mobility shift assay
[5] = Toxicity in Crl:CD Sprague-Dawley rat assessed as urea nitrogen level in blood at 100 mg/kg, po administered daily for 14 days (reference value: 16.7+/-2.39 mg/dL); type: organism-based; details: in vivo, 336 h, time 14 day
[6] = Toxicity in Crl:CD Sprague-Dawley rat assessed as lymphocyte count in blood at 100 mg/kg, po administered daily for 14 days (reference value: 7.37+/-1.6 10^3/uL); type: organism-based; details: in vivo, 336 h, time 14 day
[7] = target: Tyrosine-protein kinase Tec (Homo sapiens) (UniProt P42680); assay: Inhibition of N-terminal GST-tagged human TEC catalytic domain (359 to 631 residues) expressed in baculovirus-infected Sf21 cells using Srctide as substrate at 1 uM in presence of ATP by Mobility shift assay
[8] = Toxicity in Crl:CD Sprague-Dawley rat assessed as neutrophil count in blood at 100 mg/kg, po administered daily for 14 days (reference value: 1.73+/-0.276 10^3/uL); type: organism-based; details: in vivo, 336 h, time 14 day

Eukaryotic translation initiation factor 2-alpha kinase 3 (Homo sapiens), sequence (Q9NZJ5 whole entry, the tested form may be a part): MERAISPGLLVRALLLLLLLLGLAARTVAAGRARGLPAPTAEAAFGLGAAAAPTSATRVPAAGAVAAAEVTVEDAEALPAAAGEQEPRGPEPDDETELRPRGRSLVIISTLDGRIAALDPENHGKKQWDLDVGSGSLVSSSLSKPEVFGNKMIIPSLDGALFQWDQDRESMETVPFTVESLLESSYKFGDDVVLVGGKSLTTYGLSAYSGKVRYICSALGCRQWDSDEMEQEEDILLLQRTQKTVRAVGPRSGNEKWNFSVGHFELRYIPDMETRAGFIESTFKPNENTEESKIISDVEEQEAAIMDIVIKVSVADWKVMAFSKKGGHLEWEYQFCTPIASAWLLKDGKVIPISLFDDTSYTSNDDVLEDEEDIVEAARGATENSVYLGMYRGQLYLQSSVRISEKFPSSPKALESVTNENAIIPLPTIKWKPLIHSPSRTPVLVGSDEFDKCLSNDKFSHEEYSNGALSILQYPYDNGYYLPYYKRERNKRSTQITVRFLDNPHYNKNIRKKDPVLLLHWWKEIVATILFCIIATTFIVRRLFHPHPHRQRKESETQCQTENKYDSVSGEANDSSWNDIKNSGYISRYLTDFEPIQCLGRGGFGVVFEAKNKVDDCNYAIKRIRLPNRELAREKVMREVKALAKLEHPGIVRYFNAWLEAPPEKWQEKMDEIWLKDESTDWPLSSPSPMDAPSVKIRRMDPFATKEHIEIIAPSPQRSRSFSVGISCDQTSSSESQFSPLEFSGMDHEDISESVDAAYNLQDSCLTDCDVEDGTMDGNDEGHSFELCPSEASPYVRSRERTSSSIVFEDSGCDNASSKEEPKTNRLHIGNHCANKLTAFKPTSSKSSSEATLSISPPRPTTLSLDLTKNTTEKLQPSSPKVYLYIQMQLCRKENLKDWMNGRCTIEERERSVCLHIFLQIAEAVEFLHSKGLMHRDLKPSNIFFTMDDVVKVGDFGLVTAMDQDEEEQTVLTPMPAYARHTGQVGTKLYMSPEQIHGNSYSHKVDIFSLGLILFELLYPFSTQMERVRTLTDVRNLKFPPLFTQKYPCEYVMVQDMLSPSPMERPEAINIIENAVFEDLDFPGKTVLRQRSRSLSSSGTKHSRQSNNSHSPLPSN
Histone-arginine methyltransferase CARM1, sequence (Q86X55 whole entry): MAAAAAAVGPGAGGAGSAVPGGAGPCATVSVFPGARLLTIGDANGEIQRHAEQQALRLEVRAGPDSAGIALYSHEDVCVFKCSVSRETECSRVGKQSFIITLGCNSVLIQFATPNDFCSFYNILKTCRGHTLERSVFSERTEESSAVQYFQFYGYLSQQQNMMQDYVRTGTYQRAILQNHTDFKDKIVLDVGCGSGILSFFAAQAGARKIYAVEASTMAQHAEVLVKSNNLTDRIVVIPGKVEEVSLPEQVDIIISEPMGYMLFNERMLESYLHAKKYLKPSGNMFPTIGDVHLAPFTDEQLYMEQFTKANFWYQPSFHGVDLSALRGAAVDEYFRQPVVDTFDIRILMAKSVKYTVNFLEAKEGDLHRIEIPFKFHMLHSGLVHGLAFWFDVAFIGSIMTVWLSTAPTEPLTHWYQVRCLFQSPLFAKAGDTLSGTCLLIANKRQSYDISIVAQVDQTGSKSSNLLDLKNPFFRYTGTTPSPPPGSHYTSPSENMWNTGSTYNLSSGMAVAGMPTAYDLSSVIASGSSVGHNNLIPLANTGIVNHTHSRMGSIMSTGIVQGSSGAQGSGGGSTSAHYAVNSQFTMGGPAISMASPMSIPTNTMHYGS
Tyrosine-protein kinase Tec (Homo sapiens), sequence (P42680 whole entry, the tested form may be a part): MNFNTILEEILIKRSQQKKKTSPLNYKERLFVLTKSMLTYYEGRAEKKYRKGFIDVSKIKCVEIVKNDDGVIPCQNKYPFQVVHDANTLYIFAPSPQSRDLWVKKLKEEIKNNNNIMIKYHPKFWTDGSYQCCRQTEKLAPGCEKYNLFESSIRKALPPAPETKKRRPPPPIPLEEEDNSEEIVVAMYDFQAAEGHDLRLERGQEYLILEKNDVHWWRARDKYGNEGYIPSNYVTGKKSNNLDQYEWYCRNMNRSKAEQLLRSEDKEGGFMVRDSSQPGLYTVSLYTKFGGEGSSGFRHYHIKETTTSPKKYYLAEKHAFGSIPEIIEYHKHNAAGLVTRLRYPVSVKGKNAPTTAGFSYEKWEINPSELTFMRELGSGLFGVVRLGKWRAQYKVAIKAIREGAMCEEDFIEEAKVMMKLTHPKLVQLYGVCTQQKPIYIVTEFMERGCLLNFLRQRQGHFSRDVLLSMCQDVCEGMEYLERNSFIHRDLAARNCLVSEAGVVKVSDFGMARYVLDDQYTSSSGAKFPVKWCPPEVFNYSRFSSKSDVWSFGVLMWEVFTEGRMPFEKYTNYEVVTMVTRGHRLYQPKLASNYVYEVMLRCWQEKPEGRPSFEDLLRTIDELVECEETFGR
PRMT5/MEP50 complex, sequence (O14744 whole entry): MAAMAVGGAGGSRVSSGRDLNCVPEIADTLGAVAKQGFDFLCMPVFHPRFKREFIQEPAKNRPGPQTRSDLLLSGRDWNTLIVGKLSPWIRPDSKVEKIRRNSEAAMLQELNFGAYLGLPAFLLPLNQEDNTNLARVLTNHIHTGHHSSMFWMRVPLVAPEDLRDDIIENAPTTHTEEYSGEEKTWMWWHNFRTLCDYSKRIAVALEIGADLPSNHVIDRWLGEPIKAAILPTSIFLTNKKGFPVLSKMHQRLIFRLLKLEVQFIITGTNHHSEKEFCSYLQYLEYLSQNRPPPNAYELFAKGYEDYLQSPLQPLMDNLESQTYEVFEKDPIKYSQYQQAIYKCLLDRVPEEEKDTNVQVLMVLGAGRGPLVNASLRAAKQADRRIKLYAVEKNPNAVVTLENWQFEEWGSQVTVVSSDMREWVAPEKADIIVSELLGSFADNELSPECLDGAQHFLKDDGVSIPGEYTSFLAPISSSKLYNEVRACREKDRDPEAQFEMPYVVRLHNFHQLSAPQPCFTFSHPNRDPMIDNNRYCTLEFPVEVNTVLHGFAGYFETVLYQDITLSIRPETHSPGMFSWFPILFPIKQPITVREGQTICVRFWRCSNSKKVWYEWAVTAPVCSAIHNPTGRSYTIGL
PRMT5/MEP50 complex, sequence (Q9BQA1 whole entry): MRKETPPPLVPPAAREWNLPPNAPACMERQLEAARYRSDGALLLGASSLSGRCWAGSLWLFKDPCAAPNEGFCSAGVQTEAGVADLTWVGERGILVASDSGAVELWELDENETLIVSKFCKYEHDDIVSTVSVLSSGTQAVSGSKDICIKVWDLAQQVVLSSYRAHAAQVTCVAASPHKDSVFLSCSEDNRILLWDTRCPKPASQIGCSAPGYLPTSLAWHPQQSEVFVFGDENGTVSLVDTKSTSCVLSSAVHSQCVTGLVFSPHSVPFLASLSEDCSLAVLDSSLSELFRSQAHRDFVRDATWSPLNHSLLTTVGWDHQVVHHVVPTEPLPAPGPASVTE

Cc1cc(C)c(CNC(=O)c2cc(Cl)c3c(c2C)O[C@@](C)([C@H]2CC[C@H](N(C)C)CC2)O3)c(=O)[nH]1 [VALEMETOSTAT]
GI50 (MOLT-4): 0.12 µM
GI50 (Daudi): > 1 µM
IC50 [1]: 100 µM
GI50 (NCI-H661): 0.359 µM
GI50 (HCC1569): > 1 µM
GI50 (Raji): 0.0112 µM
GI50 (BT-549): > 1 µM
IC50 (PRMT5/MEP50 complex): 100 µM
GI50 (HuT78): > 1 µM
GI50 (HH): 0.00718 µM
GI50 (SUP-T1): > 1 µM
GI50 [2]: > 1 µM
GI50 (MV4-11): 0.00319 µM
GI50 [3]: > 1 µM
GI50 (MDA-MB-231): > 1 µM
GI50 (NCI-H2081): 0.982 µM
GI50 (PC-3): > 1 µM
GI50 (OVCAR-3): > 1 µM
GI50 (CCRF-CEM): > 1 µM
GI50 (HCC1806): > 1 µM
GI50 (LoVo): 0.15 µM
inhibition [4]: -9.8%

Cc1cc(C)c(CNC(=O)c2cc(Br)c3c(c2C)O[C@@](C)([C@H]2CC[C@H](N(C)C)CC2)O3)c(=O)[nH]1
Activity [5]: 16.8 mg/dL
Activity [6]: 3.67 10^3 /uL
inhibition [7]: -10%
Activity [8]: 0.583 10^3 /uL
